Laboratory results published in US8530473B2, “Tetrahydroquinoxaline urea derivatives as modulators of 11β-hydroxysteroid dehydrogenase type 1” (Sanofi, priority 2009, dated 2013).
Counter-ions that a name gives are not always drawn.

Experiments:
11βHSD1 = molecular target: T1, 11βHSD1 (Homo sapiens, UniProt P28845); experiment: 11βHSD1 Scintillation Proximity Assay (SPA), 384-well format; assay type: biochemical; settings: recombinant 11βHSD1 produced in S. cerevisiae; 3H-cortisone and NADPH; cortisol formed measured by SPA
T1 construct: made in house; host or cells: S. cerevisiae yeast
Procedure: The compounds according to the invention have undergone pharmacological tests for determining their inhibitory effect on the enzyme 11βHSD1, which is involved in lipid metabolism and in glucose metabolism.
These tests consisted of measuring the inhibitory activity in vitro of compounds of the invention on the enzyme 11βHSD1 using a Scintillation Proximity Assay (SPA) in 384-well format. The recombinant 1βHSD1 protein was produced in S. cerevisiae yeast. The reaction was carried out by incubating the enzyme in the presence of ^3H-cortisone and NADPH, in the absence or in the presence of increasing concentration of inhibitor. SPA beads coupled to an antimouse antibody, preincubated with an anticortisol antibody, made it possible to measure the amount of cortisol formed during the reaction.
The inhibitory activity with respect to the enzyme 11βHSD1 is given by the concentration that inhibits 50% of the activity of 11βHSD1 (IC50).

healthy volunteers = settings: after seven days of treatment, healthy volunteers (Rauz et al. 2001); cited from earlier work

T1 sequence (P28845 whole entry): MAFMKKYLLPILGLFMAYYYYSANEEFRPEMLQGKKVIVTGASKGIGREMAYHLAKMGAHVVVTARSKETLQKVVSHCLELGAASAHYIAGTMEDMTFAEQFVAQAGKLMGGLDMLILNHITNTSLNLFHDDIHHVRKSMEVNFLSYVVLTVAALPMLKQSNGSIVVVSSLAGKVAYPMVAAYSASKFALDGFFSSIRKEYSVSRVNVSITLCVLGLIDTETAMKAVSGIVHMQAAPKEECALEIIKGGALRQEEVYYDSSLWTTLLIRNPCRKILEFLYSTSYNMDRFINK

Row | melting point [°C] | IC50 (11βHSD1) [nM] | Compound | IOP is reduced by (healthy volunteers) [%]
1 | 191 | – | NC(=O)[C@]12CC3CC(C1)[C@H](NC(=O)N1CCN(c4ccc(N5CCC(N6CC[C@@H](O)C6)CC5)cn4)c4ccccc41)C(C3)C2 (as salt: HCl) [Compound 9, Trans 4-[4-((R)-3-hydroxy-pyrrolidin-1-yl)-3,4,5,6,-tetrahydro-2H-[1,3′]bipyridinyl-6′-yl]-3,4-dihydro-2H-quinoxaline-1-carboxylic acid (5-carbamoyl-adamantan-2-yl)-amide] | –
2 | 196 | – | NC(=O)C12CC3CC(C1)C(NC(=O)N1CCN(c4ccc(N5CCC(N6CCC(F)(F)C6)CC5)cn4)c4ccccc41)C(C3)C2 (stereo not drawn) (as salt: HCl) [Compound 10, Trans 4-[4-(3,3-difluoro-pyrrolidin-1-yl)-3,4,5,6-tetrahydro-2H-[1,3′]bipyridinyl-6′-yl]-3,4-dihydro-2H-quinoxaline-1-carboxylic acid (5-carbamoyl-adamantan-2-yl)-amide] | –
3 | – | 7 | C[Si](C)(C)CN1CCN(c2ccc(N3CCN(C(=O)NC4C5CC6CC4CC(O)(C6)C5)c4ccccc43)nc2)CC1 (stereo not drawn) [Compound 1, Trans 4-[5-(4-trimethylsilanylmethyl-piperazin-1-yl)-pyridin-2-yl]-3,4-dihydro-2H-quinoxaline-1-carboxylic acid (5-hydroxy-adamantan-2-yl)-amide] | –
4 | 107 to 120 | 10 | C[Si](C)(C)CCS(=O)(=O)N1CCN(c2ccc(N3CCN(C(=O)NC4C5CC6CC4CC(O)(C6)C5)c4ccccc43)nc2)CC1 (stereo not drawn) [Compound 3, Trans 4-{5-[4-(2-trimethylsilanyl-ethanesulfonyl)-piperazin-1-yl]-pyridin-2-yl}-3,4-dihydro-2H-quinoxaline-1-carboxylic acid (5-hydroxy-adamantan-2-yl)-amide] | –
5 | 206 | 3 | NC(=O)[C@]12CC3CC(C1)[C@H](NC(=O)N1CCN(c4ccc(N5CCN(CC6CC6(F)F)CC5)cn4)c4ccccc41)C(C3)C2 (stereo partly drawn) [Compound 4, Trans 4-{5-[4-(2,2-difluoro-cyclopropylmethyl)-piperazin-1-yl]-pyridin-2-yl}-3,4-dihydro-2H-quinoxaline-1-carboxylic acid (5-carbamoyl-adamantan-2-yl)-amide] | –
6 | 160 to 200 | 4 | NC(=O)[C@]12CC3CC(C1)[C@H](NC(=O)N1CCN(c4ccc(N5CCC(N6CCS(=O)(=O)CC6)CC5)cn4)c4ccccc41)C(C3)C2 [Compound 5, Trans 4-[4-(1,1-dioxo-1lambda6-thiomorpholin-4-yl)-3,4,5,6-tetrahydro-2H-[1,3′]bipyridinyl-6′-yl]-3,4-dihydro-2H-quinoxaline-1-carboxylic acid (5-carbamoyl-adamantan-2-yl)-amide] | –
7 | – | 2 | NC(=O)[C@]12CC3CC(C1)[C@H](NC(=O)N1CCN(c4ccc(N5CCC(N6CC[C@@H](O)C6)CC5)cn4)c4ccccc41)C(C3)C2 [Compound 9, Trans 4-[4-((R)-3-hydroxy-pyrrolidin-1-yl)-3,4,5,6,-tetrahydro-2H-[1,3′]bipyridinyl-6′-yl]-3,4-dihydro-2H-quinoxaline-1-carboxylic acid (5-carbamoyl-adamantan-2-yl)-amide] | –
8 | – | 2 | NC(=O)C12CC3CC(C1)C(NC(=O)N1CCN(c4ccc(N5CCC(N6CCC(F)(F)C6)CC5)cn4)c4ccccc41)C(C3)C2 (stereo not drawn) [Compound 10, Trans 4-[4-(3,3-difluoro-pyrrolidin-1-yl)-3,4,5,6-tetrahydro-2H-[1,3′]bipyridinyl-6′-yl]-3,4-dihydro-2H-quinoxaline-1-carboxylic acid (5-carbamoyl-adamantan-2-yl)-amide] | –
9 | 134 to 170 | 3 | Cl.NC(=O)[C@]12CC3CC(C1)[C@H](NC(=O)N1CCN(c4ccc(N5CCC6(CC5)CC6(F)F)cn4)c4ccccc41)C(C3)C2 [Compound 11, Trans 4-[5-(1,1-difluoro-6-aza-spiro[2.5]oct-6-yl)-pyridin-2-yl]-3,4-dihydro-2H-quinoxaline-1-carboxylic acid (5-carbamoyl-adamantan-2-yl)-amide] | –
10 | 145 to 160 | 6 | NC(=O)[C@]12CC3CC(C1)[C@H](NC(=O)N1CCN(c4ccc(N5CCC6(CC5)CC6C(=O)O)cn4)c4ccccc41)C(C3)C2 (stereo partly drawn) [Compound 12, trans-6-{6-[4-(5-Carbamoyl-adamantan-2-ylcarbamoyl)-3,4-dihydro-2H-quinoxalin-1-yl]-pyridin-3-yl}-6-aza-spiro[2.5]octane-1-carboxylic acid] | –
11 | 106 to 108 | 25 | C[Si]1(c2ccccc2)CCN(c2ccc(N3CCN(C(=O)N[C@H]4C5CC6CC4C[C@@](C(N)=O)(C6)C5)c4ccccc43)nc2)CC1 [Compound 13, Trans 4-[5-(4-methyl-4-phenyl-[1,4]azasilinan-1-yl)-pyridin-2-yl]-3,4-dihydro-2H-quinoxaline-1-carboxylic acid (5-carbamoyl-adamantan-2-yl)-amide] | –
12 | 213 to 216 | 12 | C[Si]1(C)CCN(c2ccc(N3CCN(C(=O)NC4C5CC6CC4CC(C(N)=O)(C6)C5)c4ccccc43)nc2)CC1 (stereo not drawn) [Compound 14, Trans 4-[5-(4,4-dimethyl-[1,4]azasilinan-1-yl)-pyridin-2-yl]-3,4-dihydro-2H-quinoxaline-1-carboxylic acid (5-carbamoyl-adamantan-2-yl)-amide] | –
13 | – | – | CC1(C)[C@@H](OC(=O)CCC(=O)O)CC[C@]2(C)[C@H]3C(=O)C=C4[C@@H]5C[C@@](C)(C(=O)O)CC[C@]5(C)CC[C@@]4(C)[C@]3(C)CC[C@@H]12 [carbenoxolone] | 18

Row | Compound | melting point [°C] | IC50 (11βHSD1) [nM] | IOP is reduced by (healthy volunteers) [%]
14 | NC(=O)C12CC3CC(C1)C(NC(=O)N1CCN(c4ccc(N5CCC(N6CCC[C@@H]6CO)CC5)cn4)c4ccccc41)C(C3)C2 (stereo in doubt) [Compound 6, Trans 4-[4-((R)-2-hydroxymethyl-pyrrolidin-1-yl)-3,4,5,6-tetrahydro-2H-[1,3′]bipyridinyl-6′-yl]-3,4-dihydro-2H-quinoxaline-1-carboxylic acid (5-carbamoyl-adamantan-2-yl)-amide] | – | 4 | –
15 | NC(=O)C12CC3CC(C1)C(NC(=O)N1CCN(c4ccc(N5CCC(N6CCC[C@H]6CO)CC5)cn4)c4ccccc41)C(C3)C2 (stereo in doubt) [Compound 7, Trans 4-[4-((S)-2-hydroxymethyl-pyrrolidin-1-yl)-3,4,5,6-tetrahydro-2H-[1,3′]bipyridinyl-6′-yl]-3,4-dihydro-2H-quinoxaline-1-carboxylic acid (5-carbamoyl-adamantan-2-yl)-amide] | – | 3 | –
16 | NC(=O)C12CC3CC(C1)C(NC(=O)N1CCN(c4ccc(N5CCC(N6CC[C@H](O)C6)CC5)cn4)c4ccccc41)C(C3)C2 (stereo in doubt) [Compound 8, Trans 4-[4-((S)-3-hydroxy-pyrrolidin-1-yl)-3,4,5,6-tetrahydro-2H-[1,3′]bipyridinyl-6′-yl]-3,4-dihydro-2H-quinoxaline-1-carboxylic acid (5-carbamoyl-adamantan-2-yl)-amide] | – | 6 | –
17 | CC(C)(C)ON=C1CCN(c2ccc(N3CCN(C(=O)N[C@H]4C5CC6CC4C[C@@](O)(C6)C5)c4ccccc43)nc2)CC1 [Compound 2, Trans 4-(4-tert-butoxyimino-3,4,5,6-tetrahydro-2H-[1,3′]bipyridinyl-6′-yl)-3,4-dihydro-2H-quinoxaline-1-carboxylic acid (5-hydroxy-adamantan-2-yl)-amide] | 110 to 113 | 23 | –
